pIC50: −log10 of the molar value. Activity calls are given as the source filed them. The calls are words filed in the database; no cut-off is given here.

The test system of data set [1] is PANC-1. Put plainly: Preferential cytotoxicity against human PANC-1 cells in DMEM measured after 24 hrs by WST-8 cell counting analysis. The format is functional, cell-based. To be noted: PANC-1, 24 h.
The subject of data set [2] is PANC-1. Put plainly: Preferential cytotoxicity against human PANC-1 cells in nutrient-deprived medium measured after 24 hrs by WST-8 cell counting analysis. The data set is classed as functional. A general note: Tetrazolium assays rely on reduction of a dye to a coloured formazan, in cell work by metabolically active cells.
Data set [3] in a line: Selectivity index, ratio of IC50 for preferential cytotoxicity against human MIA PaCa-2 cells in DMEM to PC50 for preferential cytotoxicity against human MIA PaCa-2 cells in nutrient-deprived medium. The format is functional.
The test system of data set [4] is MIA PaCa-2. Put plainly: Preferential cytotoxicity against human MIA PaCa-2 cells in DMEM measured after 24 hrs by WST-8 cell counting analysis. To be noted: MIA PaCa-2, 24 h. The format is functional, cell-based.
Data set [5] can be described thus: Selectivity index, ratio of IC50 for preferential cytotoxicity against human PANC-1 cells in DMEM to PC50 for preferential cytotoxicity against human PANC-1 cells in nutrient-deprived medium. The data set is classed as functional.
Data set [6] relates to MIA PaCa-2. Put plainly: Preferential cytotoxicity against human MIA PaCa-2 cells in nutrient-deprived medium measured after 24 hrs by WST-8 cell counting analysis. The data set is classed as functional.
Data set [7] relates to MIA PaCa-2. Put plainly: Antitumor activity against human MIA PaCa-2 cells xenografted in BALB/c/Nu/Nu mouse assessed as reduction in number of blood vessels in skin at 60 mg/kg, ip administered 5 times a week for 4 weeks. The data set is classed as functional, organism-based. (In general: Xenograft models place foreign cells or tissue in a host animal.)
The test system of data set [8] is MIA PaCa-2. Put plainly: Antitumor activity against human MIA PaCa-2 cells xenografted in BALB/c/Nu/Nu mouse assessed as reduction in final tumor weight at 60 mg/kg, ip administered 5 times a week for 4 weeks (reference value: […]). The data set is classed as functional.
Data set [9] deals with MIA PaCa-2. Put plainly: Antitumor activity against human MIA PaCa-2 cells xenografted in BALB/c/Nu/Nu mouse assessed as tumor volume at 60 mg/kg, ip administered 5 times a week for 4 weeks and measured on day 32 (reference value: 1417 mm3). The data set is classed as functional. The settings on record: time 32 day.
Data set [10] in a line: Toxicity in BALB/c/Nu/Nu mouse xenografted with human MIA PaCa-2 cells assessed as change in body weight at 60 mg/kg, ip administered 5 times a week for 4 weeks. The format is organism-based. To be noted: in vivo, 672 h.

`COc1cc(O)c(C(=O)[C@H]2CC=C(CCC=C(C)C)C[C@@H]2c2c(F)cccc2F)c(O)c1` (relative stereo): the pIC50 (in general, the negative decadic logarithm of the IC50, by convention in mol/L) is 4.71 in the data set on PANC-1 [1] and 4.58 in the data set on MIA PaCa-2 [4]. For the same compound, the PC50 in the data set on PANC-1 [2] turned out to be 1.49 µM; in the data set with MIA PaCa-2 [6] it was 1.54 µM. Also, the “Selectivity Index” value in data set [3] amounted to 17; in data set [5] it was 13.

`COc1cc(O)c(C(=O)[C@H]2CC=C(CCC=C(C)C)C[C@@H]2c2cc(F)ccc2F)c(O)c1` (relative stereo): the pIC50 in the data set on PANC-1 [1] is 4.77; in the data set on MIA PaCa-2 [4] it was 4.58. Besides, the PC50 in the data set on PANC-1 [2] is 0.5 µM; in the data set with MIA PaCa-2 [6], 0.81 µM. The “Selectivity Index” value in [3] came out at 32.7; in data set [5], 34.4.

Consider `COc1cc(O)c(C(=O)[C@H]2CC=C(CCC=C(C)C)C[C@@H]2c2ccc(F)c(F)c2)c(O)c1` (relative stereo), for which the negative logarithm of the IC50 (pIC50) was 4.81 in the data set on PANC-1 [1] and 4.57 in the data set with MIA PaCa-2 [4]. For the same compound, the PC50 was 0.54 µM with PANC-1 [2] and 0.69 µM in the data set with MIA PaCa-2 [6]. Also, the “Selectivity Index” value in [3] is on record as 39.3; in [5] it was 28.5.

Regarding `CC(C)=CCCC1=CC[C@H](C(=O)c2c(O)cccc2O)[C@@H](c2c(F)cccc2F)C1` (single isomer, unassigned), the pIC50 in the data set with PANC-1 [1] was 4.67; with MIA PaCa-2 [4], 4.54. The PC50 amounted to 1.34 µM with PANC-1 [2] and 1.52 µM in the data set on MIA PaCa-2 [6]. Further, the “Selectivity Index” value amounted to 18.9 in data set [3] and 16.1 in data set [5].

As for `Nc1ccn([C@@H]2O[C@H](CO)[C@@H](O)C2(F)F)c(=O)n1` [GEMCITABINE], the result in the data set on MIA PaCa-2 [7] was Active. For the same compound, the values for the Activity (with MIA PaCa-2 [8]; in the data set on MIA PaCa-2 [9]; in [10]) were 227 mg, 632 mm3 and “Non-Toxic”, respectively.
